Test results taken from patent publication US20260021088A1, “METHODS OF USING ANTI-CD79b IMMUNOCONJUGATES TO TREAT FOLLICULAR LYMPHOMA” (Genentech, Inc., priority 2019, published 2026).

Tests used:
[1] = tested on: patients with relapsed or refractory (R/R) FL; details: for Dose reductions: n = 56
Source text: This Phase Ib/II, open label, multicenter, non-randomized, dose-escalation study evaluated the safety, efficacy, and pharmacokinetics of induction treatment consisting of obinutuzumab (GA101 or G) in combination with polatuzumab vedotin (anti-CD79b(huMA79b.v28)-MC-vc-PAB-MMAE ADC (DCDS4501A) or Pola) and lenalidomide (Len) (G+Pola+Len) in patients with relapsed or refractory (R/R) FL, followed by post induction treatment with obinutuzumab in combination with lenalidomide. The study included an initial dose-escalation phase, followed by an expansion phase during which polatuzumab vedotin and lenalidomide were given at their recommended Phase II doses (RP2Ds).
The primary efficacy endpoint was based on IRC assessment of response. Patients were monitored closely for adverse events throughout the study and for at least 90 days after the last dose of study treatment. To characterize the pharmacokinetic (PK) properties of obinutuzumab, polatuzumab vedotin, and lenalidomide, blood samples were obtained at various timepoints before and during study treatment administration
Safety assessments consist of monitoring and recording adverse events, including serious adverse events and non-serious adverse events of special interest, performing protocol-specified safety laboratory assessments, measuring protocol-specified vital signs, and conducting other protocol-specified tests that were deemed critical to the safety evaluation of the study.
The safety analyses include all treated patients (i.e., patients who received any amount of study treatment). Safety is assessed through summaries of adverse events and changes from baseline in laboratory test results, shift-tables of ECGs findings, and vital signs. All adverse events occurring on or after first study treatment are summarized by mapped term, appropriate thesaurus levels, and NCI CTCAE, Version 4.0 grade. All serious adverse events, adverse events of special interest, and selected adverse events are summarized and listed. Deaths reported during the treatment period and during post-treatment follow-up are listed and summarized.
Adverse Events: NCI CTCAE, Version 4.0 is used for assessing adverse event severity. All adverse events are reported until 90 days after the last dose of study treatment. After this period, the investigator reports any serious adverse events that are believed to be related to prior study treatment and events of second malignancies for patients who received obinutuzumab. Grade 3 and 4 infections (both related and unrelated) are reported until up to 2 years after the last dose of obinutuzumab.
Infusion-Related Reactions: Adverse events that occur during or within 24 hours after the end of study treatment infusion and are judged to be related to infusion of any of the study treatment components are captured as a diagnosis (e.g., “infusion-related reaction”). If a patient experiences both a local and systemic reaction to the same dose of study treatment, each reaction is recorded separately, with signs and symptoms also recorded separately.

[2] = tested on: patients with relapsed or refractory (R/R) FL; experiment: Phase Ib/II study, dose-escalation phase: dose-limiting toxicities and recommended Phase II dose
Source text: The purpose of the FL dose-escalation phase was to identify the RP2D for polatuzumab vedotin and the RP2D for lenalidomide when combined with a fixed dose of obinutuzumab as induction treatment.
Patients were closely monitored for adverse events during the dose limiting toxicity (DLT) assessment window, defined as the first treatment cycle (from Day 1 of Cycle 1 to Day 1 of Cycle 2). Patients experiencing a DLT during the DLT assessment period continued receiving study treatment once the event resolved if determined it was safe to continue treatment and there was potential for clinical benefit. Patients who discontinued from the study prior to completing the DLT assessment window for reasons other than a DLT were considered non-evaluable for dose-escalation decisions and RP2D assessments and were replaced by an additional patient at that same dose level. Patients who missed one or more doses of polatuzumab vedotin or obinutuzumab or five consecutive daily doses of lenalidomide during the DLT assessment window for reasons other than a DLT were also replaced and considered non-evaluable for dose-escalation decisions. Patients who received supportive care during the DLT assessment window that could confound the evaluation of DLTs were replaced at the discretion of the Medical Monitor.
A standard 3+3 dose-escalation schema was used. […]

[3] = Example 1 interim, n = 52, given as G+Pola+Len

| Compound | Dose reductions ([1]; Example 2, given as G+Pola+Len) | AEs leading to lenalidomide dose interruptions [1, 3] [%] | AEs leading to lenalidomide dose reduction [1, 3] [%] | Patients who required lenalidomide dose reductions ([1]; Example 2, during maintenance) | Recommended Phase II dose (RP2D) ([2]; combined with polatuzumab vedotin and fixed dose of 1000 mg obinutuzumab) [mg] | Recommended Phase II dose (RP2D) ([2]; combined with lenalidomide and fixed dose of 1000 mg obinutuzumab) [mg/kg] |
| --- | --- | --- | --- | --- | --- | --- |
| obinutuzumab: anti-CD20 antibody; afucosylated glyco-engineered humanized B-Ly1 antibody | no dose reductions | – | – | – | – | – |
| Nc1cccc2c1CN(C1CCC(=O)NC1=O)C2=O (stereo not shown) [lenalidomide, 3-(4-amino-1-oxo-2,3-dihydro-1H-isoindol-2-yl)piperidine-2,6-dione] | – | 52 | 31 | Two | 20 | – |
| polatuzumab vedotin | no dose reductions | – | – | – | – | 1.4 |
